Laboratory results published in patent publication US11739098B2 (BRISTOL-MYERS SQUIBB COMPANY, priority 2017, dated 2023).

Legend:
Assay type in all cases: cell-based
human TLR7 = biological target: T1, human TLR7 (Homo sapiens, UniProt Q9NYK1); experiment: TLR7 inhibition reporter assay (HEK-Blue cells, SEAP reporter, gardiquimod stimulation); conditions: HEK-Blue cells overexpressing human TLR7, SEAP reporter, gardiquimod 7.5 μM
T1 construct: host or cells: HEK-Blue cells (HEK293-derived reporter line)
T1 sequence (Q9NYK1 27-1049): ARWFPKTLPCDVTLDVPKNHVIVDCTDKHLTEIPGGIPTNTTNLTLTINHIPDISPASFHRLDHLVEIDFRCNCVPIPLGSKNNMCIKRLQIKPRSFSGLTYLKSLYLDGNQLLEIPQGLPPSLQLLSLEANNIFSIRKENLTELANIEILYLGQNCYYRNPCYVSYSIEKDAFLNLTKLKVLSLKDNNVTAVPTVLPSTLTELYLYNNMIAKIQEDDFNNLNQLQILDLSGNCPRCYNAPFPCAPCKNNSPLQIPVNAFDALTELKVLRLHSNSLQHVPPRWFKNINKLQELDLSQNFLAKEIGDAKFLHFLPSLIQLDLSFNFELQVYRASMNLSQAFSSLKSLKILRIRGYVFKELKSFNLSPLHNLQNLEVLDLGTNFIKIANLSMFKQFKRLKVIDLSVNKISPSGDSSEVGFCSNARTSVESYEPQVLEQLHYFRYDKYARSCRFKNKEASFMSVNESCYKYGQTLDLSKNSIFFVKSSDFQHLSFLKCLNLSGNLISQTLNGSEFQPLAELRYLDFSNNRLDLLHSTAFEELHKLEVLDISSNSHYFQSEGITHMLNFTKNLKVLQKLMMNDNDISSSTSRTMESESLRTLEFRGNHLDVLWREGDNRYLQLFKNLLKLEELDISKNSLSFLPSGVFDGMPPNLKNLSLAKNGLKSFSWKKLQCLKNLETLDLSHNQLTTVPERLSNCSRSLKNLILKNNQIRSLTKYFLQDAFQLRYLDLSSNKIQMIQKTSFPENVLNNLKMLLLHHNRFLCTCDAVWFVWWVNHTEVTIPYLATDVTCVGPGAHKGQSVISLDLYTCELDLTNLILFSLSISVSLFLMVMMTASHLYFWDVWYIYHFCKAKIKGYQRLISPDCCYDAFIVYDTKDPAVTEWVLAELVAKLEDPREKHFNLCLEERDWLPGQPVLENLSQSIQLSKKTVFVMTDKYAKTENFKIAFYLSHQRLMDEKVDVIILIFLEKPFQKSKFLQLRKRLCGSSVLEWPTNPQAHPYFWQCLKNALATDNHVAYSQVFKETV
Outline: (§1)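 Cells seeded per well (15000 TLR7, 20,000 TLR8, 25,000 TLR9); compound added over 0.05 nM–50 μM for 30 min at room temperature; agonist added (TLR7 gardiquimod 7.5 μM, TLR8 R848 15.9 μM, TLR9 ODN2006 5 nM); 22 h at 37 °C; SEAP measured; percent inhibition calculated.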

human TLR8 = biological target: T2, human TLR8 (Homo sapiens, UniProt Q9NR97); experiment: TLR8 inhibition reporter assay (HEK-Blue cells, SEAP reporter, R848 stimulation); conditions: HEK-Blue cells overexpressing human TLR8, SEAP reporter, R848 15.9 μM
T2 construct: host or cells: HEK-Blue cells (HEK293-derived reporter line)
T2 sequence (Q9NR97 27-1041): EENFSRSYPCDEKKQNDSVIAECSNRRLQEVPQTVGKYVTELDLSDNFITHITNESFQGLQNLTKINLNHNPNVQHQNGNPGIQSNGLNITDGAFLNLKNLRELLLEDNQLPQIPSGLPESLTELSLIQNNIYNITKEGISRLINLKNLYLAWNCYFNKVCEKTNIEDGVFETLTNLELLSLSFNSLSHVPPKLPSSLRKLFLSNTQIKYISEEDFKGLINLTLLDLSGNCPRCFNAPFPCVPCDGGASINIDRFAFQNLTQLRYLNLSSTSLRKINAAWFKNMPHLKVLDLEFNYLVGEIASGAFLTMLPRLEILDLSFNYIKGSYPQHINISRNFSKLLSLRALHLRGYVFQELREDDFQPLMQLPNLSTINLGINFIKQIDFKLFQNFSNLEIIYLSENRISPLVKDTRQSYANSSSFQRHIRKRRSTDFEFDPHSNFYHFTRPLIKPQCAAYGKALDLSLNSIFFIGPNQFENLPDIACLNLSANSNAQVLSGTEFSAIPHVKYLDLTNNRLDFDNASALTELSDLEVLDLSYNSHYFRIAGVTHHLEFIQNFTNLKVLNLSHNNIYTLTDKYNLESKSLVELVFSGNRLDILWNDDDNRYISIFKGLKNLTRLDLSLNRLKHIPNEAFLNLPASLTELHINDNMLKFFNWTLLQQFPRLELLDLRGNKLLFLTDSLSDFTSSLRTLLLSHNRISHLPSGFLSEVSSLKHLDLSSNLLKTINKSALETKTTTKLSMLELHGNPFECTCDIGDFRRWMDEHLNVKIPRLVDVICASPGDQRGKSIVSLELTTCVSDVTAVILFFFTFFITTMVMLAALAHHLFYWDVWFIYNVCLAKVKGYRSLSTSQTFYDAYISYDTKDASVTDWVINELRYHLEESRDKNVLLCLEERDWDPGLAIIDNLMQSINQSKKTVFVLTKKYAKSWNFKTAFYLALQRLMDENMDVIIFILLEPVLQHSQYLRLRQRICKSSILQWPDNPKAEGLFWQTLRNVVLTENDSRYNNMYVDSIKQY
Outline: as §1

human TLR9 = biological target: T3, human TLR9 (Homo sapiens, UniProt Q9NR96); experiment: TLR9 inhibition reporter assay (HEK-Blue cells, SEAP reporter, ODN2006 stimulation); conditions: HEK-Blue cells overexpressing human TLR9, SEAP reporter, ODN2006 5 nM
T3 construct: host or cells: HEK-Blue cells (HEK293-derived reporter line)
T3 sequence (Q9NR96 26-1032): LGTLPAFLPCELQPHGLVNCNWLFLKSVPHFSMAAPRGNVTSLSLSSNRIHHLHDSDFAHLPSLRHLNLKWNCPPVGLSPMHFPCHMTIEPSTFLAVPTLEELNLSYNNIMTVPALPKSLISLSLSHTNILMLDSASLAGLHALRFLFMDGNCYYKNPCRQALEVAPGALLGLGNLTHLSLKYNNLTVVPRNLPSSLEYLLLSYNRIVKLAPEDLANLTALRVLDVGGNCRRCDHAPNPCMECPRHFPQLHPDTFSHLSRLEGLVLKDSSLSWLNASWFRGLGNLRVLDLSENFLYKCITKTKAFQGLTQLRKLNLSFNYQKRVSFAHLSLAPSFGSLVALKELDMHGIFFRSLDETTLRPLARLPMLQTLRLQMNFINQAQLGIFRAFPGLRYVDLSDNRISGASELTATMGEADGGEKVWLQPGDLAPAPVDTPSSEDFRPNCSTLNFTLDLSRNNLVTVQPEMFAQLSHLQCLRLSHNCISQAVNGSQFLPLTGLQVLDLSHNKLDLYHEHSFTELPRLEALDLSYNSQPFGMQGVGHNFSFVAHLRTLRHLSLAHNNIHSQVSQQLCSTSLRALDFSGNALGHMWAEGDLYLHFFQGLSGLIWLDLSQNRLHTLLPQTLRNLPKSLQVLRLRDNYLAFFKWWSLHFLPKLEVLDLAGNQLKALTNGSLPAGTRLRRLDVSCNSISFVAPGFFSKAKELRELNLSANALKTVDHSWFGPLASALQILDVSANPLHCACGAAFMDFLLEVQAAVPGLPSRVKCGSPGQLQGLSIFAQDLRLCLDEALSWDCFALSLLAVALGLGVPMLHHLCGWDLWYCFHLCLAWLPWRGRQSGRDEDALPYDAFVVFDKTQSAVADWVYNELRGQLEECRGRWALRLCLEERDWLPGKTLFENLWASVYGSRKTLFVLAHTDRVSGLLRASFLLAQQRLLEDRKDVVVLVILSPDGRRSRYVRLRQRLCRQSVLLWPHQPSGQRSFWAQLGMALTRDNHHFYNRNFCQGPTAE
Outline: as §1

Structure (SMILES) | IC50 (human TLR7) | IC50 (human TLR8) | IC50 (human TLR9)
CC(C)c1c(-c2cn(C)c3ncccc23)[nH]c2ccc(C3CCN(CCS(N)(=O)=O)CC3)cc12 [Example 783, 2-(4-(3-isopropyl-2-(1-methyl-1H-pyrrolo[2,3-b]pyridin-3-yl)-1H-indol-5-yl)piperidin-1-yl)ethane-1-sulfonamide] | < 100 nM | < 100 nM | 1000 to 50000 nM
COc1cc(-c2[nH]c3ccc(C4CCN(CC#N)CC4)cc3c2C(C)C)cn2ccnc12 [Example 950, 2-(4-(3-isopropyl-2-(8-methoxyimidazo[1,2-a]pyridin-6-yl)-1H-indol-5-yl)piperidin-1-yl)acetonitrile] | < 100 nM | < 100 nM | 100 to 1000 nM
Cc1c(-c2ccnc3[nH]ncc23)[nH]c2ccc(C3CCNCC3)cc12 [Example 231, 4-(3-methyl-5-(piperidin-4-yl)-1H-indol-2-yl)-1H-pyrazolo[3,4-b]pyridine] | 100 to 1000 nM | 100 to 1000 nM | 1000 to 50000 nM
CCc1c(-c2cnc3cncc(OC)n23)[nH]c2ccc(C3CCNCC3)cc12 [Example 25, 3-(3-ethyl-5-(piperidin-4-yl)-1H-indol-2-yl)-5-methoxyimidazo[1,2-a]pyrazine] | 1000 to 50000 nM | 1000 to 50000 nM | 100 to 1000 nM
CC(C)c1c(-c2cnc3ncnn3c2)[nH]c2ccc(C3CCNCC3)cc12 [Example 170, 6-(3-isopropyl-5-(piperidin-4-yl)-1H-indol-2-yl)-[1,2,4]triazolo[1,5-a]pyrimidine] | < 100 nM | < 100 nM | 100 to 1000 nM
Cc1c(-c2ncc3[nH]ccc3n2)[nH]c2ccc(C3CCN(C4CCN(C(C)C)CC4)CC3)cc12 [Example 808, 2-(5-(1′-isopropyl-[1,4′-bipiperidin]-4-yl)-3-methyl-1H-indol-2-yl)-5H-pyrrolo[3,2-d]pyrimidine] | 1000 to 50000 nM | 1000 to 50000 nM | < 100 nM
CNCCN1CCC(c2ccc3[nH]c(-c4ccc5c(c4)OCCN5C)c(C)c3c2)CC1 [Example 673, N-methyl-2-(4-(3-methyl-2-(4-methyl-3,4-dihydro-2H-benzo[b][1,4]oxazin-7-yl)-1H-indol-5-yl)piperidin-1-yl)ethan-1-amine] | > 50000 nM | > 3130 nM | 1000 to 50000 nM
Cc1c(-c2[nH]c3ccc(C4CCN(C5CCOCC5)CC4)cc3c2C(C)C)c2cccnc2n1C [Example 691, 3-(3-isopropyl-5-(1-(tetrahydro-2H-pyran-4-yl)piperidin-4-yl)-1H-indol-2-yl)-1,2-dimethyl-1H-pyrrolo[2,3-b]pyridine] | < 100 nM | < 100 nM | 1000 to 50000 nM
CC(C)c1c(-c2cc(N)nc3[nH]cnc23)[nH]c2ccc(C3CCNCC3)cc12 [Example 228, 7-(3-isopropyl-5-(piperidin-4-yl)-1H-indol-2-yl)-3H-imidazo[4,5-b]pyridin-5-amine] | < 100 nM | < 100 nM | 100 to 1000 nM
CC(C)c1c(-c2cc(C(C)C)c3nccn3c2)[nH]c2ccc(C3CCNCC3)cc12 [Example 260, 8-Isopropyl-6-(3-isopropyl-5-(piperidin-4-yl)-1H-indol-2-yl)imidazo[1,2-a]pyridine] | < 100 nM | 100 to 1000 nM | 1000 to 50000 nM
CC(C)c1c(-c2ccnc3[nH]ncc23)[nH]c2cc(F)c(C3CCN(CC4CCN(C(C)C)CC4)CC3)cc12 [Example 966, 4-(6-fluoro-3-isopropyl-5-(1-((1-isopropylpiperidin-4-yl)methyl)piperidin-4-yl)-1H-indol-2-yl)-1H-pyrazolo[3,4-b]pyridine] | < 100 nM | < 100 nM | < 100 nM
Cc1cc(-c2[nH]c3ccc(C4CCN(C(=O)CN(C)C(C)C)CC4)cc3c2C(C)C)cn2nnnc12 [Example 480, 2-(isopropyl(methyl)amino)-1-(4-(3-isopropyl-2-(8-methyltetrazolo[1,5-a]pyridin-6-yl)-1H-indol-5-yl)piperidin-1-yl)ethan-1-one] | < 100 nM | < 100 nM | 1000 to 50000 nM
Cc1cc(-c2[nH]c3ccc(C4CCNCC4)cc3c2C(C)C)cc2ncc(O)nc12 [Example 87, 6-(3-isopropyl-5-(piperidin-4-yl)-1H-indol-2-yl)-8-methylquinoxalin-2-ol] | < 100 nM | < 100 nM | 100 to 1000 nM
Cc1cc(-c2[nH]c3ccc(C4CCN(Cc5ncn(C)n5)CC4)cc3c2C(C)C)cc2cnnn12 [Example 890, 5-(3-isopropyl-5-(1-((1-methyl-1H-1,2,4-triazol-3-yl)methyl)piperidin-4-yl)-1H-indol-2-yl)-7-methyl-[1,2,3]triazolo[1,5-a]pyridine] | < 100 nM | < 100 nM | 1000 to 50000 nM
CC(C)c1c(-c2cn(C)c3ncccc23)[nH]c2ccc(C3CCN(C4CCOCC4)CC3)cc12 [Example 694, 3-(3-isopropyl-5-(1-(tetrahydro-2H-pyran-4-yl)piperidin-4-yl)-1H-indol-2-yl)-1-methyl-1H-pyrrolo[2,3-b]pyridine] | < 100 nM | < 100 nM | 1000 to 50000 nM
